14 molecules from ChEMBL document CHEMBL1143629, “Synthesis and antibacterial activity of 1-(2-fluorovinyl)-7-substituted-4-quinolone-3-carboxylic acid derivatives, conformationally restricted analogues of fleroxacin” (J Med Chem, 2005) can be followed below.

Experiment [1] concerns Streptococcus pneumoniae. In words: In vitro minimum inhibitory concentration against Streptococcus pneumoniae type III. The experiment is classed as functional.
Experiment [2] relates to Pseudomonas aeruginosa. Description: In vitro minimum inhibitory concentration against Pseudomonas aeruginosa IID1210. Type of experiment: functional.
Experiment [3] relates to Escherichia coli. In words: In vitro minimum inhibitory concentration against Escherichia coli NIHJ JC-2. Type of experiment: functional.
In experiment [4] the test system is Staphylococcus aureus. In words: In vitro minimum inhibitory concentration against Staphylococcus aureus Smith. Type of experiment: functional.
In experiment [5] the target is DNA gyrase (Staphylococcus aureus, UniProt P0A0K8+P20831). Description: Inhibitory concentration against DNA gyrase of Staphylococcus aureus. Type of experiment: protein-complex assay.
Sequence of DNA gyrase (P0A0K8 whole entry): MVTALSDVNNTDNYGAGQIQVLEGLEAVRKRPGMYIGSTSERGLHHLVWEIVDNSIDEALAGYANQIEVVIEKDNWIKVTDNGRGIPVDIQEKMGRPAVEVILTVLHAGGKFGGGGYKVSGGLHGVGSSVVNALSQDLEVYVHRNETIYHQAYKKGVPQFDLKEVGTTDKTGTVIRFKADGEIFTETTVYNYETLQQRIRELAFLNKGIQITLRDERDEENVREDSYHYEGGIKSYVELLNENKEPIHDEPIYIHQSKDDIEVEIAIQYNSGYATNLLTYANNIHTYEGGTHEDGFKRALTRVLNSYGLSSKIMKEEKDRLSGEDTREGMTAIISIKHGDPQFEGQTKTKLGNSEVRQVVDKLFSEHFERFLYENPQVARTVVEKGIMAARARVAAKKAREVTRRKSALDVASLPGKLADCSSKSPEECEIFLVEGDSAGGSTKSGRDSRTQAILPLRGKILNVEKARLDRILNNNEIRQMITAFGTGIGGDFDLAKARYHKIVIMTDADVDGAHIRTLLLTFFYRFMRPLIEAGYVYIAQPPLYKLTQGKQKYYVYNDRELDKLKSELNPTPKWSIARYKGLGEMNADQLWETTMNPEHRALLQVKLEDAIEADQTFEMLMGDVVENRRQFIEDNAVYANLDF
Sequence of DNA gyrase (P20831 whole entry): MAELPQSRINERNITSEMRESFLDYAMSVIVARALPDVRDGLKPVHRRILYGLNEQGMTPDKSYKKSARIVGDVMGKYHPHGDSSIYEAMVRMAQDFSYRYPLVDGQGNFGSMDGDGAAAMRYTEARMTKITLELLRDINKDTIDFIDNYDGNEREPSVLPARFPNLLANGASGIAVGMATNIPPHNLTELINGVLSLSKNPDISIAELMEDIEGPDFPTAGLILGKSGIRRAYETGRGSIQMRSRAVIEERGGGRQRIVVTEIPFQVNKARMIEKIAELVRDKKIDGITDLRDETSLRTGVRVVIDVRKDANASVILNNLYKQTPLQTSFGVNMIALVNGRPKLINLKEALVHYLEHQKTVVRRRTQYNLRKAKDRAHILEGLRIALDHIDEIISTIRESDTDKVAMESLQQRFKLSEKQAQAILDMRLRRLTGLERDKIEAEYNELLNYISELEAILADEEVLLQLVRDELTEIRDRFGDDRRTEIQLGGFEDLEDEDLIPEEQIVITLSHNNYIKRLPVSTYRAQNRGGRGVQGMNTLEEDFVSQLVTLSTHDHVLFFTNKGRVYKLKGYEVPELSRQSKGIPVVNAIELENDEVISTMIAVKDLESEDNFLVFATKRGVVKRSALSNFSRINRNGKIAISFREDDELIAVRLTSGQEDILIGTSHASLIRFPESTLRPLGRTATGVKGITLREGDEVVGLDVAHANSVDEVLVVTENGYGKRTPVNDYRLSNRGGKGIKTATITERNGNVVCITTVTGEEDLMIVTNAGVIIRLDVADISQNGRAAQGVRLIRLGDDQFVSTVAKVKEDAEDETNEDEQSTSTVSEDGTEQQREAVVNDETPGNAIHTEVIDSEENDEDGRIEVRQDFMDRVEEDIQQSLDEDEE

≈ marks a conversion by molar mass, not a printed value.

Regarding `COc1c(N2CCC(N)C2)c(F)cc2c(=O)c(C(=O)O)cn(/C=C/F)c12` (centres undefined), the MIC in experiment [1] is 12.5 µg/mL (≈ 34.2 µM); in experiment [2], 6.25 µg/mL (≈ 17.1 µM); in experiment [3], 0.1 µg/mL (≈ 0.274 µM); in experiment [4], 6.25 µg/mL (≈ 17.1 µM).
For the molecule `COc1c(N2CCN(C)CC2)c(F)cc2c(=O)c(C(=O)O)cn(/C=C\F)c12`, the MIC in experiment [1] is 3.13 µg/mL (≈ 8.25 µM); in experiment [2] it was 3.13 µg/mL (≈ 8.25 µM); in experiment [3], 0.025 µg/mL (≈ 0.0659 µM); in experiment [4] it was 0.39 µg/mL (≈ 1.03 µM).
For the molecule `COc1c(N2CCN(C)CC2)c(F)cc2c(=O)c(C(=O)O)cn(/C=C/F)c12`, the MIC in experiment [1] turned out to be 50 µg/mL (≈ 132 µM); in experiment [2], 25 µg/mL (≈ 65.9 µM); in experiment [3], 0.2 µg/mL (≈ 0.527 µM); in experiment [4], 6.25 µg/mL (≈ 16.5 µM).
As for `CN1CCN(c2c(F)cc3c(=O)c(C(=O)O)cn(/C=C/F)c3c2F)CC1`, the MIC in experiment [1] is greater than 50 µg/mL; in experiment [2], 12.5 µg/mL (≈ 34 µM); in experiment [3], 0.39 µg/mL (≈ 1.06 µM); in experiment [4] it was 12.5 µg/mL (≈ 34 µM). Also, the IC50 in experiment [5] was 1810 µM.
`NC1CCN(c2c(F)cc3c(=O)c(C(=O)O)cn(/C=C/F)c3c2F)C1` (centres undefined): the MIC in experiment [1] was 12.5 µg/mL (≈ 35.4 µM); in experiment [2] it was 1.56 µg/mL (≈ 4.42 µM); in experiment [3], 0.2 µg/mL (≈ 0.566 µM); in experiment [4], 3.13 µg/mL (≈ 8.86 µM).
The like results for `O=C(O)c1cn(C2CC2)c2cc(N3CCNCC3)c(F)cc2c1=O` [CIPROFLOXACIN] were, in that order, 0.78 µg/mL (≈ 2.35 µM), 0.2 µg/mL (≈ 0.604 µM), no more than 0.0063 µg/mL and 0.2 µg/mL (≈ 0.604 µM).
The like results for `COc1c(N2CCC(N)C2)c(F)cc2c(=O)c(C(=O)O)cn(/C=C\F)c12` (centres undefined) were, in that order, 1.56 µg/mL (≈ 4.27 µM), 1.56 µg/mL (≈ 4.27 µM), 0.0125 µg/mL (≈ 0.0342 µM) and 0.39 µg/mL (≈ 1.07 µM).
Turning to `CN1CCN(c2c(F)cc3c(=O)c(C(=O)O)cn(CCF)c3c2F)CC1` [FLEROXACIN], the MIC in experiment [1] was determined as 3.13 µg/mL (≈ 8.47 µM); in experiment [2], 1.56 µg/mL (≈ 4.22 µM); in experiment [3] it was 0.025 µg/mL (≈ 0.0677 µM); in experiment [4], 0.39 µg/mL (≈ 1.06 µM). Besides, the IC50 in experiment [5] was 185 µM.
For `CN1CCN(c2c(F)cc3c(=O)c(C(=O)O)cn(/C=C\F)c3c2F)CC1` the same measures were 3.13 µg/mL (≈ 8.52 µM), 1.56 µg/mL (≈ 4.25 µM), 0.025 µg/mL (≈ 0.0681 µM), 0.39 µg/mL (≈ 1.06 µM) and 197 µM.
`CN1CCN(c2cc3c(cc2F)c(=O)c(C(=O)O)cn3/C=C\F)CC1`: the MIC came to 3.13 µg/mL (≈ 8.96 µM) in experiment [1], 1.56 µg/mL (≈ 4.47 µM) in experiment [2], 0.025 µg/mL (≈ 0.0716 µM) in experiment [3] and 0.2 µg/mL (≈ 0.573 µM) in experiment [4].
On to `NC1CCN(c2cc3c(cc2F)c(=O)c(C(=O)O)cn3/C=C/F)C1` (centres undefined), for which the MIC in experiment [1] turned out to be 6.25 µg/mL (≈ 18.6 µM); in experiment [2] it was 3.13 µg/mL (≈ 9.33 µM); in experiment [3] it was 0.2 µg/mL (≈ 0.596 µM); in experiment [4] it was 1.56 µg/mL (≈ 4.65 µM).
Take `CN1CCN(c2cc3c(cc2F)c(=O)c(C(=O)O)cn3/C=C/F)CC1`: the MIC in experiment [1] is 100 µg/mL (≈ 286 µM); in experiment [2] it was 6.25 µg/mL (≈ 17.9 µM); in experiment [3], 0.2 µg/mL (≈ 0.573 µM); in experiment [4], 3.13 µg/mL (≈ 8.96 µM).
For the molecule `NC1CCN(c2c(F)cc3c(=O)c(C(=O)O)cn(/C=C\F)c3c2F)C1` (centres undefined), the MIC stood at 0.78 µg/mL (≈ 2.21 µM) in experiment [1], 0.39 µg/mL (≈ 1.1 µM) in experiment [2], 0.05 µg/mL (≈ 0.142 µM) in experiment [3] and 0.2 µg/mL (≈ 0.566 µM) in experiment [4].
For `NC1CCN(c2cc3c(cc2F)c(=O)c(C(=O)O)cn3/C=C\F)C1` (centres undefined) the same measures were 3.13 µg/mL (≈ 9.33 µM), 0.78 µg/mL (≈ 2.33 µM), 0.05 µg/mL (≈ 0.149 µM) and 0.39 µg/mL (≈ 1.16 µM).
